Patent publication CN104650070A, “二氢嘧啶类化合物及其在药物中的应用” (Guangdong HEC Pharmaceutical Co Ltd, priority 2013, dated 2015)

Columns and labels:
[1] = system: HBV in HepG2.2.15 cells (HBV HepG2.2.15细胞株); assay: In vitro anti-HBV activity in HBV HepG2.2.15 cell line (qPCR of HBV DNA in culture supernatant); assay type: cell-based; settings: Hepatitis B virus, 192 h, HBV DNA in culture supernatant by qPCR, collected on day 8, top concentration 16.4 μM, 3-fold dilution, 9 points, duplicate wells
[2] = system: HBV; settings: cited from Science, 299 (2003), 893-896; cited from earlier work

Compound	EC50 [1] [µM]	IC50 [2] [µM]
COC(=O)C1=C(CN2CCOC(CCC(=O)NS(=O)(=O)c3ccccc3)C2)NC(c2nccs2)=NC1c1ccc(F)cc1Cl (centres unmarked) [实施例18, 4-(2-氯-4-氟苯基)-6-((2-(3-氧代-3-(苯磺酰胺)丙基)吗啉代)甲基)-2-(噻唑-2-基)-1,4-二氢嘧啶-5-甲酸甲酯]	0.74	–
Nc1ccn([C@@H]2CS[C@H](CO)O2)c(=O)n1 [拉米夫定]	–	0.3
CCOC(=O)C1=C(CN2CCOC(CCC(=O)Nc3ccccc3)C2)NC(c2nccs2)=NC1c1ccc(F)cc1Br (centres unmarked) [实施例14, 4-(2-溴-4-氟苯基)-6-((-2-(3-氧代-3-(苯胺)丙基)吗啉代)甲基)-2-(噻唑-2-基)-1,4-二氢嘧啶-5-甲酸乙酯]	0.54	–
CCOC(=O)C1=C(CN2CCOC[C@H]2C(=O)NC2CC2)NC(c2nccs2)=N[C@H]1c1ccc(F)cc1Br [实施例4, (R)-4-(2-溴-4-氟苯基)-6-(((S)-3-(环丙氨甲酰基)吗啉代)甲基)-2-(噻唑-2-基)-1,4-二氢嘧啶-5-甲酸乙酯]	0.7	–
CCOC(=O)C1=C(CN2CCOC[C@H]2C(=O)NS(=O)(=O)C2CC2)NC(c2nccs2)=NC1c1ccc(F)cc1Br (stereo partly drawn) [实施例2, 4-(2-溴-4-氟苯基)-6-(((S)-3-((环丙磺酰基)氨甲酰基)吗啉)甲基)-2-(噻唑-2-基)-1,4-二氢嘧啶-5-甲酸乙酯]	2.3	–
CCOC(=O)C1=C(CN2CCOC[C@H]2C(=O)NCc2ccccc2)NC(c2nccs2)=N[C@H]1c1ccc(F)cc1Br [实施例7, (R)-6-(((S)-3-(苄基氨甲酰基)吗啉代)甲基)-4-(2-溴-4-氟苯基)-2-(噻唑-2-基)-1,4-二氢嘧啶-5-甲酸乙酯]	0.67	–
COC(=O)C1=C(CN2CCOC(CCC(=O)NS(=O)(=O)c3ccccc3)C2)NC(c2nccs2)=NC1c1ccc(Cl)cc1Cl (centres unmarked) [实施例19, 4-(2,4-二氯苯基)-6-((2-(3-氧代-3-(苯磺酰胺)丙基)吗啉代)甲基)-2-(噻唑-2-基)-1,4-二氢嘧啶-5-甲酸甲酯]	0.56	–
CCOC(=O)C1=C(CN2CCOC[C@H]2C(=O)NC2CC2)NC(c2nccs2)=N[C@H]1c1ccc(Cl)cc1Cl [实施例6, (R)-6-(((S)-3-(环丙氨甲酰基)吗啉代)甲基)-4-(2,4-二氯苯基)-2-(噻唑-2-基)-1,4-二氢嘧啶-5-甲酸乙酯]	0.65	–
CCOC(=O)C1=C(CN2CCOC[C@H]2C(=O)Nc2nccs2)NC(c2nccs2)=N[C@H]1c1ccc(F)cc1Br [实施例13, (R)-4-(2-溴-4-氟苯基)-2-(噻唑-2-基)-6-(((S)-3-(噻唑-2-基氨甲酰)吗啉代)甲基)-1,4-二氢嘧啶-5-甲酸乙酯]	1.4	–
CCOC(=O)C1=C(CN2CCOC[C@H]2C(=O)Nc2ccccc2)NC(c2nccs2)=N[C@H]1c1ccc(F)cc1Cl [实施例11, (R)-4-(2-氯-4-氟苯基)-6-(((S)-3-(苯基氨甲酰基)吗啉代)甲基)-2-(噻唑-2-基)-1,4-二氢嘧啶-5-甲酸乙酯]	0.92	–
CCOC(=O)C1=C(CN2CCOC[C@H]2C(=O)Nc2ccccc2)NC(c2nccs2)=N[C@H]1c1ccc(F)cc1Br [实施例10, (R)-4-(2-溴-4-氟苯基)-6-(((S)-3-(苯基氨甲酰基)吗啉代)甲基)-2-(噻唑-2-基)-1,4-二氢嘧啶-5-甲酸乙酯]	0.8	–
CCOC(=O)C1=C(CN2CCOC(CCC(=O)Nc3ccccc3)C2)NC(c2nccs2)=NC1c1ccc(F)cc1Cl (centres unmarked) [实施例15, 4-(2-氯-4-氟苯基)-6-((-2-(3-氧代-3-(苯胺)丙基)吗啉代)甲基)-2-(噻唑-2-基)-1,4-二氢嘧啶-5-甲酸乙酯]	0.67	–
CCOC(=O)C1=C(CN2CCOC[C@H]2C(=O)Nc2ccccc2)NC(c2nccs2)=N[C@H]1c1ccc(Cl)cc1Cl [实施例12, (R)-4-(2,4-二氯苯基)-6-(((S)-3-(苯基氨甲酰基)吗啉代)甲基)-2-(噻唑-2-基)-1,4-二氢嘧啶-5-甲酸乙酯]	0.72	–
CCOC(=O)C1=C(CN2CCOC(CCC(=O)Nc3ccccc3)C2)NC(c2nccs2)=NC1c1ccc(Cl)cc1Cl (centres unmarked) [实施例16, 4-(2,4-二氯苯基)-6-((-2-(3-氧代-3-(苯胺)丙基)吗啉代)甲基)-2-(噻唑-2-基)-1,4-二氢嘧啶-5-甲酸乙酯]	0.49	–
CCOC(=O)C1=C(CN2CCOC[C@H]2C(=O)NCc2ccccc2)NC(c2nccs2)=N[C@H]1c1ccc(Cl)cc1Cl [实施例9, (R)-6-(((S)-3-(苄基氨甲酰)吗啉代)甲基)-4-(2,4-二氯苯基)-2-(噻唑-2-基)-1,4-二氢嘧啶-5-甲酸乙酯]	0.54	–
COC(=O)C1=C(CN2CCOC(CCC(=O)NS(=O)(=O)c3ccccc3)C2)NC(c2nccs2)=NC1c1ccc(F)cc1Br (centres unmarked) [实施例17, 4-(2-溴-4-氟苯基)-6-((-2-(3-氧代-3-(苯磺酰胺)丙基)吗啉代)甲基)-2-(噻唑-2-基)-1,4-二氢嘧啶-5-甲酸甲酯]	0.65	–
CCOC(=O)C1=C(CN2CCOC[C@H]2C(=O)NC2CC2)NC(c2nccs2)=N[C@H]1c1ccc(F)cc1Cl [实施例5, (R)-4-(2-氯-4-氟苯基)-6-(((S)-3-(环丙氨甲酰基)吗啉代)甲基)-2-(噻唑-2-基)-1,4-二氢嘧啶-5-甲酸乙酯]	0.8	–
CCOC(=O)C1=C(CN2CCOC[C@H]2C(=O)NS(C)(=O)=O)NC(c2nccs2)=NC1c1ccc(F)cc1Br (stereo partly drawn) [实施例1, 4-(2-溴-4-氟苯基)-6-(((S)-3-((甲磺酰基)氨甲酰基)吗啉代)甲基)-2-(噻唑-2-基)-1,4-二氢嘧啶-5-甲酸乙酯]	1	–
CCOC(=O)C1=C(CN2CCOC(CCC(=O)NCc3ccccc3)C2)NC(c2nccs2)=NC1c1ccc(F)cc1Br (centres unmarked) [实施例3, 6-((2-(3-(苄胺)-3-氧代丙基)吗啉)甲基)-4-(2-溴-4-氟苯基)-2-(噻唑-2-基)-1,4-二氢嘧啶-5-甲酸乙酯]	0.13	–
CCOC(=O)C1=C(CN2CCOC[C@H]2C(=O)NCc2ccccc2)NC(c2nccs2)=N[C@H]1c1ccc(F)cc1Cl [实施例8, (R)-6-(((S)-3-(苄基氨甲酰基)吗啉代)甲基)-4-(2-氯-4-氟苯基)-2-(噻唑-2-基)-1,4-二氢嘧啶-5-甲酸乙酯]	0.89	–
